This is an account of results in ChEMBL document CHEMBL1201862, “PubChem BioAssay data set” (2004).

Among the test systems are ACHN; CAKI-1; EKVX; HOP-92; K562; KM12; LOX IMVI; NCI-H226; NCI-H460; OVCAR-3; OVCAR-8; RPMI-8226; RXF 393; SF-295; SK-OV-3; SNB-19; SR; SW-620; UO-31.
Common to all, as to assay: NCI-60 cell line screen, 48 h

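Grown in 96-well plates, cells were treated for 48 hours with each compound at five concentrations. Insufficient inhibition: endpoint recorded as highest concentration tested. Here, GI50 denotes the concentration required for 50% inhibition of growth.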 Calls of active or inactive are those of the source. No stated cut-off is given here; in the data, active = GI50 up to about 1.1 µM and inactive = higher.

Take `C[C@H](CCC(=O)NCCS(=O)(=O)O)[C@H]1CC[C@H]2[C@@H]3CC[C@@H]4C[C@H](O)CC[C@]4(C)[C@H]3CC[C@]12C`: the GI50 in the assay on ACHN, in the assay with CAKI-1, with EKVX, with HOP-92, in the assay on K562 and in the assay with KM12 was > 100 µM (inactive) throughout. Moreover, the GI50 with LOX IMVI, in the assay with NCI-H226, with NCI-H460, with OVCAR-3, in the assay on OVCAR-8 and in the assay on RPMI-8226 was > 100 µM (inactive) in each case. Also, the GI50 is > 100 µM (inactive) in the assay with RXF 393; > 100 µM (inactive) with SF-295; > 100 µM (inactive) with SK-OV-3; > 100 µM (inactive) with SNB-19; 28.7 µM (inactive) in the assay on SR; > 100 µM (inactive) in the assay on SW-620. The GI50 in the assay on UO-31 is > 100 µM (inactive).

`CC(=O)OCC(OC(C)=O)C1C[C@H]2O[C@@H]3[C@H](C[C@H]2O1)O[C@@]1(C[C@@H]3C)C[C@H](C)[C@@H]2O[C@]3(C[C@@H]2O1)C[C@H]1O[C@H]2[C@H](C)[C@H]4OC(=O)C[C@H]5CC[C@@H]6OC7[C@H]8O[C@]9(CC[C@H]%10CC(=O)[C@H](CC[C@H]%11C[C@@H](C)C(=O)C(C[C@@H]4O[C@H]2C[C@H]1O3)O%11)O%10)CC8O[C@@H]7[C@@H](O9)[C@H]6O5` (stereo not given in full): the GI50 in the assay with ACHN is 0.0627 µM (active); in the assay on CAKI-1, 0.00515 µM (active); in the assay on EKVX it was 0.0201 µM (active); in the assay on HOP-92 it was 0.0611 µM (active); in the assay with K562, 0.00123 µM (active); in the assay on KM12 it was 0.00183 µM (active). The GI50 in the assay with LOX IMVI is 0.00486 µM (active); with NCI-H226, 0.00703 µM (active); in the assay with NCI-H460 it was 0.00315 µM (active); in the assay on OVCAR-3, 0.00319 µM (active); with OVCAR-8, 0.00964 µM (active); in the assay on RPMI-8226, 0.00229 µM (active). For the same molecule, the GI50 was 0.00283 µM (active) in the assay on RXF 393; 0.00242 µM (active) with SF-295; 0.00728 µM (active) in the assay with SK-OV-3; 0.0101 µM (active) in the assay on SNB-19; 0.000233 µM (active) with SR; 0.00438 µM (active) with SW-620. The GI50 in the assay on UO-31 is 0.0388 µM (active).

For `O=C1C(Cl)C(c2cc3cc(Br)ccc3nc2Cl)N1c1ccc(Cl)cc1` (stereo not given), the GI50 in the assay on ACHN was 4.5 µM (inactive); in the assay with CAKI-1, 4.43 µM (inactive); in the assay on EKVX, 4.16 µM (inactive); with HOP-92 it was 3.43 µM (inactive); in the assay on K562, 5.81 µM (inactive); in the assay with KM12, 8.97 µM (inactive). For the same molecule, the GI50 was 0.906 µM (active) with LOX IMVI; 4.26 µM (inactive) with NCI-H226; 6.59 µM (inactive) with NCI-H460; 5.41 µM (inactive) in the assay with OVCAR-3; 5.9 µM (inactive) in the assay on OVCAR-8; 5.21 µM (inactive) in the assay with RPMI-8226. Moreover, the GI50 in the assay with RXF 393 was 5.13 µM (inactive); in the assay on SF-295, 9.68 µM (inactive); in the assay on SK-OV-3, 10.3 µM (inactive); with SNB-19, 8.43 µM (inactive); in the assay on SR, 1.64 µM (inactive); in the assay on SW-620, 7.35 µM (inactive). For the same molecule, in the assay with UO-31, the GI50 was 0.815 µM (active).

On to `CN(C)CCCSc1nc2ccccc2[nH]1`, for which the GI50 with ACHN, with CAKI-1, with EKVX, in the assay on HOP-92, with K562 and in the assay on KM12 was > 100 µM (inactive) in each case. Also, the GI50 with LOX IMVI, in the assay with NCI-H226, in the assay with NCI-H460, in the assay with OVCAR-3, in the assay with OVCAR-8 and in the assay on RPMI-8226 was > 100 µM (inactive) throughout. The GI50 with RXF 393, with SF-295, in the assay on SK-OV-3, in the assay with SNB-19, in the assay on SR and in the assay with SW-620 was > 100 µM (inactive) each time. Also, in the assay with UO-31, the GI50 is > 100 µM (inactive).

With `O=C(O)C1=C(C(=O)O)N(c2ccncc2)C(c2ccco2)=CC1c1ccccc1[N+](=O)[O-]` (stereo not given), the GI50 is 1.72 µM (inactive) in the assay with ACHN; 15.5 µM (inactive) in the assay with CAKI-1; 11.2 µM (inactive) in the assay on EKVX; 7.06 µM (inactive) with HOP-92; 2.85 µM (inactive) with K562; 1.62 µM (inactive) in the assay with KM12. The GI50 with LOX IMVI is 2.01 µM (inactive); with NCI-H226, 9.59 µM (inactive); in the assay on NCI-H460, 12.6 µM (inactive); in the assay with OVCAR-3, 8.17 µM (inactive); with OVCAR-8, 16.7 µM (inactive); in the assay on RPMI-8226, 2.79 µM (inactive). Also, the GI50 in the assay on RXF 393 was 7.94 µM (inactive); with SF-295 it was 12.2 µM (inactive); in the assay with SK-OV-3, 18 µM (inactive); with SNB-19 it was 12.9 µM (inactive); with SR, 2.03 µM (inactive); with SW-620 it was 8.85 µM (inactive). Further, in the assay on UO-31, the GI50 is 8.26 µM (inactive).

As to `O=C(Nc1ccc(Cl)cc1)c1cc(S(=O)(=O)Nc2n[nH]c(Nc3ccc4ccccc4c3)n2)c(SSc2cc(Cl)c(C(=O)Nc3ccc(Cl)cc3)cc2S(=O)(=O)Nc2n[nH]c(Nc3ccc4ccccc4c3)n2)cc1Cl`, the GI50 was 21.6 µM (inactive) in the assay on ACHN; 19.1 µM (inactive) with CAKI-1; 42.9 µM (inactive) with EKVX; 28.2 µM (inactive) with HOP-92; 20.5 µM (inactive) with K562; 20 µM (inactive) with KM12. The GI50 was 17.5 µM (inactive) in the assay with LOX IMVI; 21.7 µM (inactive) with NCI-H226; 26.7 µM (inactive) in the assay on NCI-H460; 26.2 µM (inactive) in the assay with OVCAR-3; 27 µM (inactive) in the assay on OVCAR-8; 22 µM (inactive) with RPMI-8226. Moreover, the GI50 in the assay with RXF 393 is 32.5 µM (inactive); in the assay with SF-295, 20.5 µM (inactive); in the assay on SK-OV-3 it was 33.5 µM (inactive); in the assay with SNB-19 it was 21.3 µM (inactive); with SR, 23.7 µM (inactive); in the assay on SW-620, 21.3 µM (inactive). Moreover, in the assay on UO-31, the GI50 is 24.2 µM (inactive).

For `CCOC(=O)c1nc2ccc(C(F)(F)F)cc2nc1NCc1ccc(OC)cc1`, the GI50 with ACHN is 92.5 µM (inactive); in the assay on CAKI-1 it was > 100 µM (inactive); in the assay on EKVX it was > 100 µM (inactive); in the assay on HOP-92, 47.5 µM (inactive); in the assay with K562, 39.5 µM (inactive); with KM12, 36 µM (inactive). Moreover, the GI50 in the assay with LOX IMVI was 48.6 µM (inactive); with NCI-H226, > 100 µM (inactive); in the assay on NCI-H460, 28 µM (inactive); in the assay on OVCAR-3, 71.8 µM (inactive); with OVCAR-8 it was > 100 µM (inactive); in the assay with RPMI-8226 it was 69.8 µM (inactive). In addition, the GI50 was > 100 µM (inactive) with RXF 393; > 100 µM (inactive) in the assay with SF-295; > 100 µM (inactive) with SK-OV-3; > 100 µM (inactive) with SNB-19; 28.2 µM (inactive) with SR; > 100 µM (inactive) with SW-620. The GI50 in the assay on UO-31 is > 100 µM (inactive).

With `N=C(N)N/N=C/c1c(-c2ccc([N+](=O)[O-])cc2)nc2sc(Cl)cn12`, the GI50 in the assay with ACHN is 1.27 µM (inactive); in the assay with CAKI-1, 1.67 µM (inactive); with EKVX, 0.611 µM (active); with HOP-92 it was 1.73 µM (inactive); in the assay on K562, 0.239 µM (active); in the assay with KM12, 0.809 µM (active). Moreover, the GI50 was 0.871 µM (active) in the assay on LOX IMVI; 1.76 µM (inactive) in the assay with NCI-H226; 1.73 µM (inactive) in the assay on NCI-H460; 1.27 µM (inactive) in the assay with OVCAR-3; 0.479 µM (active) in the assay on OVCAR-8; 1.32 µM (inactive) in the assay with RPMI-8226. Besides, the GI50 in the assay with RXF 393 is 0.67 µM (active); in the assay with SF-295, 1.17 µM (inactive); in the assay on SK-OV-3, 1.8 µM (inactive); in the assay with SNB-19, 0.667 µM (active); with SR, 0.0731 µM (active); with SW-620 it was 0.226 µM (active). Further, in the assay with UO-31, the GI50 is 0.979 µM (active).

With `CCc1ccc2c(c1)/C(=C1/Nc3ccccc3C1=O)C(=O)N2`, the GI50 with ACHN was 5.66 µM (inactive); with CAKI-1 it was 17.2 µM (inactive); with EKVX, 5.36 µM (inactive); in the assay with HOP-92 it was 33.3 µM (inactive); with K562, 22.3 µM (inactive); with KM12 it was 0.428 µM (active). The GI50 with LOX IMVI was 50.7 µM (inactive); in the assay with NCI-H226, 18.7 µM (inactive); with NCI-H460, 23.3 µM (inactive); in the assay with OVCAR-3 it was 20.6 µM (inactive); with OVCAR-8, 7.46 µM (inactive); in the assay with RPMI-8226, > 100 µM (inactive). Also, the GI50 in the assay on RXF 393 was 15.1 µM (inactive); with SF-295, 20.2 µM (inactive); with SK-OV-3, 10.3 µM (inactive); in the assay with SNB-19, 11 µM (inactive); with SR, 14.1 µM (inactive); with SW-620 it was 63.2 µM (inactive). In the assay on UO-31, the GI50 is 7.38 µM (inactive).

For the molecule `O=C(NC(Cc1c[nH]c2ccccc12)C(=O)O)/C(=C/c1ccccc1)NC(=O)c1ccccc1` (stereo not given), the GI50 in the assay with ACHN was > 94.8 µM (inactive); in the assay with CAKI-1 it was > 95.1 µM (inactive); in the assay on EKVX, 42.7 µM (inactive); with HOP-92, 23.9 µM (inactive); in the assay with K562 it was 59.7 µM (inactive); in the assay with KM12 it was 57.9 µM (inactive). Also, the GI50 was > 100 µM (inactive) in the assay with LOX IMVI; > 100 µM (inactive) in the assay with NCI-H226; 68.1 µM (inactive) in the assay with NCI-H460; 38.4 µM (inactive) in the assay with OVCAR-3; 57.5 µM (inactive) in the assay on OVCAR-8; 32.4 µM (inactive) in the assay with RPMI-8226. For the same molecule, the GI50 was 34.8 µM (inactive) in the assay with RXF 393; 36.4 µM (inactive) with SF-295; 54.2 µM (inactive) with SK-OV-3; > 92 µM (inactive) with SNB-19; > 100 µM (inactive) in the assay with SR; > 100 µM (inactive) in the assay with SW-620. In addition, the GI50 in the assay with UO-31 was 53.2 µM (inactive).
